The values that follow come from patent US20200068887A1, “TREATMENT FOR REMOVING ECTOPARASITES FROM FISH” (priority 2016, published 2020).

One experiment relates to sea lice. In words: Comparison on isolated sea lice (in vitro bath exposure). The following applies: registered approx. 20 h after end of exposure. As to the method: Both pre-adult and adult stages (mobile stages) of both sexes were used, and they were equally distributed among groups. The sea lice were exposed to imidacloprid for 60 minutes, azamethiphos for 60 minutes and deltamethrin for 30 minutes in one litre baths at a range of concentrations (Tables 6, 7 and 8). The sea lice were transferred to clean aerated seawater after treatment. The temperature of the seawater during the experiment was 12° C., but during exposure the temperature raised to approx. 14° C. in regimes exposed for 60 min. (imidacloprid and azamethiphos) and to 13° C. for the regime exposed in 30 minutes (deltamethrin).
The numbers of live and immobilised (including killed) lice in each regime were registered approximately 20 h after end of exposure. Each louse was individually investigated.

A further experiment has as its system salmon louse. In words: Bath treatment of lice-infected Atlantic salmon, percent lice removed. The following applies: duplicate. It counts as in vivo. On the procedure: To determine the concentration- and time-dependence of imidacloprid treatment in vivo, Atlantic salmon (average of 320.9 g) were challenged with imidacloprid in seawater (32.5%0 salinity) at 12° C. The water level in the tank was lowered and aeration was employed during administration of the active. The salmon louse copepodid culture was counted and adjusted to obtain a target level of around 40 copepodids per fish in the challenge tank at each challenge time point.
Salmon lice on the fish were counted using standard methods. Only lice on the fish's outer surface, not including gills and oral/buccal cavities, were investigated.
Numbers of dissociated lice in tank water or attached to the tank walls were recorded. Lice in the tank water were collected and assessed for ability to attach by suction to a smooth plastic surface immediately after treatment and again after 30-60 minutes (to assess possible revival). Live and viable lice were also collected from the mock-treated control groups for reference and held in revival chambers for the same period of time to assess the system.
The test solutions of the active were prepared (added and homogenised with seawater) and administered to a treatment volume of 40 litres.
Three sea lice-infected fish from the holding tank were randomly gathered and carefully steered into a barrel forming an inner compartment (diameter=34.5-40 cm; height=54 cm) that was submerged in the tank and in which the base has been replaced with a plastic mesh screen with 9 mm^2 square holes.
The fish were transferred to the inner compartment within 3 minutes of each test start. The inner compartment was suspended/submerged in the holding tank pending treatment. Treatments and mock treatments were implemented by draining the inner compartment with fish and transferring it to a barrel containing the test solution. Treatments/mock treatments were performed in static water with aeration/oxygenation. Aeration was adjusted to set the oxygen saturation to 70-100%.
To terminate the treatment, the inner compartment with treated fish was lifted to the surface and drained, then fish were transferred directly and without water to a second basin with a lethal overdose of anaesthetic and left until dead. All lice remaining on these fish and lice that fell off in the anaesthetic bath were recorded.
Exposure times with imidacloprid ranged from 3 to 60 minutes, and doses ranged from 20 ppm to 200 ppm.
Negative control groups at 3- and 60 minutes were duplicated. Superscript numbers denote the total number of lice on the 3 fish in each test.
By way of comparison, fish infected with sea lice from the same sources were treated with azamethiphos at 0.1 mg/l and deltamethrin at 0.2 μ/l for 30 minutes, per the recommended dosage regimes. Treatments were carried out under similar conditions as those treated with imidacloprid. A mock-treatment control was also administered. Each treatment condition was administered in duplicate.
Superscript numbers denote the total number of lice on the 3 fish in each test.

The mark [1] stands for this setting: azamethiphos 5 ppm, 60 min exposure.
Where [2] appears, read: azamethiphos 10 ppm, 60 min exposure.
[3] abbreviates: azamethiphos 15 ppm, 60 min exposure.
Where [4] appears, read: azamethiphos 20 ppm, 60 min exposure.
Where [5] appears, read: deltamethrin 5 ppm, 30 min exposure.
Where [6] appears, read: deltamethrin 15 ppm, 30 min exposure.
Where [7] appears, read: deltamethrin 20 ppm, 30 min exposure.
The mark [8] stands for this setting: deltamethrin 30 ppm, 30 min exposure.

Several values for one entry are separate records, joined by “and”; a condition that tells them apart may be missing. Identical values can stand only once.

With `COP(=O)(OC)SCn1c(=O)oc2cc(Cl)cnc21` [azamethiphos], the “% effect” value in the experiment on sea lice (setting [1]) was 0%; in the experiment on sea lice (setting [2]), 10%; with sea lice (setting [3]) it was 0%; with sea lice (setting [4]) it was 10% and 20%. Further, the Immobilised in the experiment with sea lice (setting [1]) was 0; in the experiment with sea lice (setting [2]) it was 1; with sea lice (setting [3]), 0; in the experiment with sea lice (setting [4]), 1 and 2. Further, the Live was 10 in the experiment on sea lice (setting [1]); 9 in the experiment on sea lice (setting [2]); 10 in the experiment with sea lice (setting [3]); 9 and 8 with sea lice (setting [4]); 9 and 6 with sea lice (azamethiphos 30 ppm, 60 min exposure). Moreover, the “% Removal” value with salmon louse (azamethiphos at 0.1 mg/l for 30 minutes, 52 and 33 lice on 3 fish) is 3.0^33% and 3.8^52%.

Consider `CC1(C)[C@H](C(=O)O[C@H](C#N)c2cccc(Oc3ccccc3)c2)[C@@H]1C=C(Br)Br` [deltamethrin], for which the “% effect” value in the experiment with sea lice (setting [5]) was 0%; in the experiment on sea lice (setting [6]), 20% and 10%; in the experiment on sea lice (setting [7]), 20% and 10%. The Immobilised in the experiment with sea lice (setting [5]) is 0; with sea lice (setting [6]), 2 and 1; with sea lice (setting [7]), 2 and 1; with sea lice (setting [8]), 1 and 2. Further, the Live in the experiment on sea lice (setting [5]) was 10; with sea lice (deltamethrin 10 ppm, 30 min exposure), 9 and 10; with sea lice (setting [6]), 8 and 9; in the experiment with sea lice (setting [7]) it was 8 and 9; with sea lice (setting [8]), 10 and 8. Also, the “% Removal” value in the experiment with salmon louse (deltamethrin at 0.2 μ/l for 30 minutes, 37 lice on 3 fish each) was 0^37%.
